From patent US12091411B2, “IRAK degraders and uses thereof” (Kymera Therapeutics, Inc., priority 2022, dated 2024)
Read-outs that look alike come from different tables or passages of the source.

Target: T1, IRAK4 (Homo sapiens, UniProt Q9NWZ3)
T1 construct: Degradation of IRAK4 in OCI-LY10 was quantitatively measured using Meso Scale Discovery technology; endogenous in cells; host or cells: OCI-LY10
T1 sequence (Q9NWZ3 1-460): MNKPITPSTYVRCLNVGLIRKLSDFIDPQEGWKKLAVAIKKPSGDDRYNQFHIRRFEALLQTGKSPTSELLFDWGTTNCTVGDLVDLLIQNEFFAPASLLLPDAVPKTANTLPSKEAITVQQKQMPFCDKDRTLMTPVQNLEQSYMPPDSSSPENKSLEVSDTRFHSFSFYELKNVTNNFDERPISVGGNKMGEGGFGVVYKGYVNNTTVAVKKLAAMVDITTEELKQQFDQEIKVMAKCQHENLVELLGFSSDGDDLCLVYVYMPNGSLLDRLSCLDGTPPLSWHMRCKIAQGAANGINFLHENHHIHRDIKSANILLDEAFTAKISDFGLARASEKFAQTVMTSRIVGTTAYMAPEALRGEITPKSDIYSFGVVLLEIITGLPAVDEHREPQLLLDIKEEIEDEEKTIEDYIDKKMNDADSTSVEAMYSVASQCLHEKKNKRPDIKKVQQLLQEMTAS
Assay: IRAK4 MSD Degradation in OCI-LY10
Type: cell-based
Settings: OCI-LY10 cells, MSD
Outline: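 DC50, from a three-parameter logistic fit and reported as letter bins A (<0.01 μM), B, C, D (>0.2 μM or not tested), reflects IRAK4 loss measured by MSD electrochemiluminescence in OCI-LY10 lysates. Treatment: 8 doses, 1:3 steps, top 1 to 10 μM, 4 to 24 h, 37 °C.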

[1] = 4 hrs incubation, read-out: IRAK4 degradation in OCI-LY10 at 4 hrs: DC50
[2] = 24 hrs incubation, read-out: IRAK4 degradation in OCI-LY10 at 24 hrs: DC50

DC50 [1] [nM] | DC50 [2] [nM] | SMILES
> 200 | > 200 | Cn1c(=O)n(C2CCC(=O)NC2=O)c2cccc(N3CC(O[C@H]4CCN(C[C@H]5CC[C@H](n6cc(NC(=O)c7cnn8ccc(N9C[C@H]%10C[C@@H]9CO%10)nc78)c(C(F)F)n6)CC5)C[C@H]4F)C3)c21 (stereo partly shown) [I-584]
> 200 | > 200 | Cn1c(=O)n(C2CCC(=O)NC2=O)c2cccc(N3CCC4C(C3)OCCN4C[C@H]3CC[C@H](n4cc(NC(=O)c5cnn6cccnc56)c(C(F)F)n4)CC3)c21 (stereo partly shown) [I-404]
> 200 |  | COc1cc2nn([C@H]3CC[C@H](CN4CC(c5cccc6c5n(C)c(=O)n6C5CCC(=O)NC5=O)C4)CC3)cc2cc1NC(=O)c1nc(C(C)(C)F)ccc1OC (stereo partly shown) [I-136]
> 200 | < 10 | CC(C)(O)c1cc2nn([C@H]3CC[C@H](CNCCCCCCNc4cccc5c4C(=O)N(C4CCC(=O)NC4=O)C5=O)CC3)cc2cc1NC(=O)c1cccc(C(F)(F)F)n1 (stereo partly shown) [I-143]
> 200 | < 10 | Cn1c(=O)n(C2CCC(=O)NC2=O)c2cccc(C3CCN(C[C@H]4CC[C@H](n5cc6cc(NC(=O)c7cccc(C(F)(F)F)n7)c(C(F)F)cc6n5)CC4)CC3F)c21 (stereo partly shown) [I-545]
> 200 | > 200 | Cn1c(=O)n(C2CCC(=O)NC2=O)c2cccc([C@H]3C[C@H](O[C@H]4CCN(C[C@H]5CC[C@H](n6cc(NC(=O)c7cnn8ccc(N9C[C@H]%10C[C@@H]9CO%10)nc78)c(C(F)F)n6)CC5)C[C@H]4F)C3)c21 (stereo partly shown) [I-596]
> 200 | > 200 | COc1cc2nn([C@H]3CC[C@H](CN4CC=C(c5ccc6c(N7CCC(=O)NC7=O)cncc6c5)C(F)(F)C4)CC3)cc2cc1NC(=O)c1cccc(C(F)(F)F)n1 [I-470]
> 200 | < 10 | Cn1c(=O)n(C2CCC(=O)NC2=O)c2cccc(C3=CCN(C[C@H]4CC[C@H](n5cc6cc(NC(=O)c7cccc(C(F)(F)F)n7)c(C(F)F)cc6n5)CC4)CC3F)c21 (stereo partly shown) [I-726]
> 200 | 10 to 100 | Cn1c(=O)n(C2CCC(=O)NC2=O)c2cccc(OC3CN(C[C@H]4CC[C@H](n5cc6cc(NC(=O)c7cccc(C(F)(F)F)n7)ccc6n5)CC4)C3)c21 (stereo partly shown) [I-607]
> 200 | > 200 | COc1cc2nn([C@H]3CC[C@H](CN4CC=C(c5ccc6c(c5)n(C)c(=O)n6C5CCC(=O)NC5=O)C(F)(F)C4)CC3)cc2cc1NC(=O)c1cccc(C(F)(F)F)n1 (stereo partly shown) [I-462]
> 200 | > 200 | Cc1cccc(C(=O)Nc2ccc3nn([C@H]4CC[C@H](CN5CC[C@H](c6cccc7c6n(C)c(=O)n7C6CCC(=O)NC6=O)[C@@H](F)C5)CC4)cc3c2)n1 (stereo partly shown) [I-622]
> 200 | > 200 | CO[C@H]1CN(c2cccc3c2n(C)c(=O)n3C2CCC(=O)NC2=O)CC[C@@H]1N(C)C[C@H]1CC[C@H](n2cc3cc(NC(=O)c4cccc(C(F)(F)F)n4)ccc3n2)CC1 (stereo partly shown) [I-496]
> 200 | < 10 | COc1ccc2c(c1N1CCN(CC3CCC(n4cc5cc(NC(=O)c6cccc(C#N)n6)ccc5n4)CC3)CC1)n(C)c(=O)n2C1CCC(=O)NC1=O (stereo not shown) [I-687]
> 200 | < 10 | Cc1cccc(C(=O)Nc2ccc3nn([C@H]4CC[C@H](CN5CC[C@@H](c6cccc7c6n(C)c(=O)n7C6CCC(=O)NC6=O)[C@H](F)C5)CC4)cc3c2)n1 (stereo partly shown) [I-727]
> 200 | > 200 | Cn1c(=O)n(C2CCC(=O)NC2=O)c2cccc(C#CCOC3CCN(C[C@H]4CC[C@H](n5cc(NC(=O)c6cnn7ccc(N8CCOC(C(F)(F)F)C8)nc67)c(C(F)F)n5)CC4)CC3)c21 (stereo partly shown) [I-333]
> 200 | > 200 | Cn1c(=O)n(C2CCC(=O)NC2=O)c2cccc(C3CCN(C[C@H]4CC[C@H](n5cc6cc(NC(=O)c7cccc(C(F)(F)F)n7)c(C#N)cc6n5)CC4)CC3(F)F)c21 (stereo partly shown) [I-444]
> 200 | < 10 | Cn1c(=O)n(C2CCC(=O)NC2=O)c2cccc([C@@H]3CCN(C[C@]4(O)CC[C@@H](n5cc6cc(NC(=O)c7cccc(C(F)(F)F)n7)ccc6n5)CC4)C[C@H]3F)c21 (stereo partly shown) [I-690]
> 200 | > 200 | CO[C@@H]1CN(c2cccc3c2n(C)c(=O)n3C2CCC(=O)NC2=O)C[C@@H]1N(C)C[C@H]1CC[C@H](n2cc3cc(NC(=O)c4cccc(C(F)(F)F)n4)ccc3n2)CC1 (stereo partly shown) [I-491]

The remaining lines, values behind:

SMILES | DC50 [1] [nM] | DC50 [2] [nM]
Cn1c(=O)n(C2CCC(=O)NC2=O)c2cccc(N3CC4(CCN(C[C@H]5CC[C@H](n6cc(NC(=O)c7cnn8ccc(N9C[C@H]%10C[C@@H]9CO%10)nc78)c(C(F)F)n6)CC5)CC4(F)F)C3)c21 (stereo partly shown) [I-669] | > 200 | < 10
C[C@H]1CN(c2ccn3ncc(C(=O)Nc4cn([C@H]5CC[C@H](CN6CCN(CC7CN(c8cccc9c8n(C)c(=O)n9C8CCC(=O)NC8=O)C7)CC6)CC5)nc4C(F)F)c3n2)CCO1 (stereo partly shown) [I-674] | > 200 | < 10
COC1(CN2CCN(C[C@H]3CC[C@H](n4cc(NC(=O)c5cnn6ccc(N7C[C@H]8CC7CO8)nc56)c(C(F)F)n4)CC3)CC2)CN(c2cccc3c2n(C)c(=O)n3C2CCC(=O)NC2=O)C1 (stereo partly shown) [I-606] | > 200 | < 10
Cn1c(=O)n(C2CCC(=O)NC2=O)c2cccc(C#CCN3C[C@@H]4C[C@H]3CN4C[C@H]3CC[C@H](n4cc(NC(=O)c5cnn6ccc(N7C[C@H]8C[C@@H]7CO8)nc56)c(C(F)F)n4)CC3)c21 (stereo partly shown) [I-50] | 10 to 100 | > 200
C[C@H]1CN(C[C@H]2CC[C@H](n3cc(NC(=O)c4cnn5ccc(N6C[C@@H]7C[C@H]6CO7)nc45)c(C(F)F)n3)CC2)CC[C@@H]1OCC#Cc1cccc2c1n(C)c(=O)n2[C@@H]1CCC(=O)NC1=O [I-80] | 10 to 100 | > 200
Cn1c(=O)n(C2CCC(=O)NC2=O)c2cccc(C#CCOC3CCN(C[C@H]4CC[C@H](n5cc(NC(=O)c6cnn7ccc(N8CCC9(CCOCC9)C8)nc67)c(C(F)F)n5)CC4)CC3)c21 (stereo partly shown) [I-329] | 10 to 100 | > 200
Cn1c(=O)n(C2CCC(=O)NC2=O)c2ccc(F)c(N3CC(N4CCN([C@H]5CC[C@H](n6cc(NC(=O)c7cnn8ccc(N9C[C@H]%10C[C@@H]9CO%10)nc78)c(C(F)F)n6)CC5)CC4)C3)c21 (stereo partly shown) [I-745] | > 200 | < 10
CN(C[C@H]1CC[C@H](n2cc(NC(=O)c3cnn4ccc(N5CCCCC5)nc34)c(C(F)F)n2)CC1)C1CCN(c2cccc3c2n(C)c(=O)n3C2CCC(=O)NC2=O)CC1(F)F (stereo partly shown) [I-515] | > 200 | 10 to 100
O=C1CCC(c2ccc([C@H]3C[C@H](CO[C@H]4CCN(C[C@H]5CC[C@H](n6cc(NC(=O)c7cnn8ccc(N9C[C@H]%10C[C@@H]9CO%10)nc78)c(C(F)F)n6)CC5)C[C@H]4F)C3)cc2Cl)C(=O)N1 (stereo partly shown) [I-780] | > 200 | > 200
Cn1c(=O)n(C2CCC(=O)NC2=O)c2cccc(C#CCOC3C4CC3CN(C[C@H]3CC[C@H](n5cc(NC(=O)c6cnn7ccc(N8C[C@H]9C[C@@H]8CO9)nc67)c(C(F)F)n5)CC3)C4)c21 (stereo partly shown) [I-30] | 10 to 100 | > 200
COc1ccc([C@H]2CC[C@H](CN3CCC(OCC#Cc4cccc5c4n(C)c(=O)n5C4CCC(=O)NC4=O)CC3)CC2)cc1NC(=O)c1cnn2ccc(N3C[C@H]4C[C@@H]3CO4)nc12 (stereo partly shown) [I-177] | > 200 | > 200
CN(Cc1ccc(-n2cc(NC(=O)c3cnn4cccnc34)c(C(F)F)n2)cc1)C1CCN(c2cccc3c2n(C)c(=O)n3C2CCC(=O)NC2=O)CC1 (stereo not shown) [I-314] | > 200 | > 200
Cn1c(=O)n(C2CCC(=O)NC2=O)c2cccc(CC[C@@H]3CN(C[C@H]4CC[C@H](n5cc(NC(=O)c6cnn7ccc(N8C[C@H]9C[C@@H]8CO9)nc67)c(C(F)F)n5)CC4)CCO3)c21 (stereo partly shown) [I-395] | > 200 | > 200
Cn1c(=O)n(C2CCC(=O)NC2=O)c2cccc(C#CCOC3CCN(C[C@H]4CC[C@H](n5cc(NC(=O)c6cnn7ccc(C8CCOCC8)nc67)c(C(F)F)n5)CC4)CC3)c21 (stereo partly shown) [I-307] | > 200 | < 10
CN(C[C@H]1CC[C@H](n2cc(NC(=O)c3cnn4ccc(N5CCOC6(CC6)C5)nc34)c(C(F)F)n2)CC1)C1CCN(c2cccc3c2n(C)c(=O)n3C2CCC(=O)NC2=O)CC1 (stereo partly shown) [I-356] | > 200 | < 10
Cn1c(=O)n(C2CCC(=O)NC2=O)c2cccc(N3CCN(C4CCN(C[C@H]5CC[C@H](n6cc(NC(=O)c7cnn8ccc(N9C[C@H]%10C[C@@H]9CO%10)nc78)c(C(F)F)n6)CC5)CC4)CC3)c21 (stereo partly shown) [I-62] | < 10 | > 200
Cc1ccc(-c2nn([C@H]3CC[C@H](CN4CCC(OCC#Cc5cccc6c5n(C)c(=O)n6C5CCC(=O)NC5=O)CC4)CC3)cc2NC(=O)c2cnn3cccnc23)nc1 (stereo partly shown) [I-173] | > 200 | 10 to 100
CN(C[C@H]1CC[C@H](n2cc(NC(=O)c3cnn4cccnc34)c(C(F)F)n2)CC1)C1CCN(c2cccc3c(N4CCC(=O)NC4=O)cncc23)CC1 [I-13] | > 200 | > 200
Cn1c(=O)n(C2CCC(=O)NC2=O)c2cccc(C#CCN3CCN(C[C@H]4CC[C@H](n5cc(NC(=O)c6cnn7ccc(N8CCN(CC(F)(F)F)CC8)nc67)c(C(F)F)n5)CC4)CC3)c21 (stereo partly shown) [I-410] | > 200 | > 200
